Where a SMILES comes first, the peptide text is derived from it. Bridges are numbered along the chain shown (N, C = ends). Side-chain parts run from the residue outwards. [ ]: non-standard residue; d: D form. The star is where a group is joined. GdDOTA = Gd(III) DOTA conjugate, O=C([O-])CN1CCN(CC(=O)[O-])CCN(CC(=O)*)CCN(CC(=O)[O-])CC1.[Gd+3]; DOTA(In) = O=C1CN2CCN3CCN(CC(=O)*)CCN(CC2)CC(=O)[O][In]([O]1)[O]C(=O)C3; DOTA(Lu) = O=C1CN2CCN3CCN(CC(=O)*)CCN(CC2)CC(=O)[O][Lu]([O]1)[O]C(=O)C3; CH3O(CH2CH2O)11CH2CH2CO = COCCOCCOCCOCCOCCOCCOCCOCCOCCOCCOCCOCCC(=O)*; nBuCAyl = n-butyl-carbamoyl (N-terminal blocking group), CCCCNC(=O)*; DOTA = O=C(O)CN1CCN(CC(=O)O)CCN(CC(=O)*)CCN(CC(=O)O)CC1; PEG12 = NCCOCCOCCOCCOCCOCCOCCOCCOCCOCCOCCOCCOCCC(=O)O; Lys(Me3) = C[N+](C)(C)CCCC[C@H](N)C(=O)O; Hyp = O=C(O)[C@@H]1C[C@@H](O)CN1; hArg = N=C(N)NCCCC[C@H](N)C(=O)O; LaDOTA = La(III) DOTA conjugate; Pentanoyl(4-Me) = CC(C)CCC(=O)*; Cit = NC(=O)NCCC[C@H](N)C(=O)O; Butoxycarbonyl = CCCCOC(=O)*; Orn = NCCC[C@H](N)C(=O)O; dNMeA = CN[C@H](C)C(=O)O; Api = NC1(C(=O)O)CCNCC1; Nva = CCC[C@H](N)C(=O)O; Pentanoyl = CCCCC(=O)*; AEEA = NCCOCCOCC(=O)O
Tests used:
[1] = Plasma stability assay (mouse plasma); format: in vitro ADME; details: 37°C, LC-MS quantification; for remaining at 6 h, 9.8 µM: mouse plasma (sodium citrate 3.7%), read-out: % intact compound remaining after 6h incubation Mouse plasma; for % intact compound remaining after 6h incubation Mouse plasma: mouse plasma (sodium citrate)
Protocol: In order to determine the stability of selected compounds of the invention in human and mouse plasma, a plasma stability assay was carried out. Such plasma stability assay measures degradation of compounds of the present invention in blood plasma. This is an important characteristic of a compound as compounds, with the exception of pro-drugs, which rapidly degrade in plasma, generally show poor in vivo efficacy. […] The stability is sufficient for the diagnostic, therapeutic and theragnostic use of these compounds according to the present invention.
The plasma stability samples were prepared by spiking 50 µl plasma aliquots (all sodium citrate 3.7%) with 1 µl of a 0.5 mM compound stock solution in DMSO. After vortexing the samples were incubated in a Thermomixer at 37°C for 0 and 6 hours. After incubation the samples were stored on ice until further treatment. All samples were prepared in duplicates.
A suitable internal standard was added to each sample (1 µl of a 0.5 mM stock solution in DMSO). Protein precipitation was performed using two different methods depending on the compound conditions as indicated in Table 13. • A) 250 µl of acetonitrile containing 1% trifluoroacetic acid was added. After incubation at room temperature for 30 min the precipitate was separated by centrifugation and 150 µl of the supernatant was diluted with 150 µl of 1% aqueous formic acid. • B) 150 µl of a zinc sulphate precipitation agent containing 78% 0.1 M zinc sulphate and 22% acetonitrile was added. After incubation at room temperature for 30 min the precipitate was separated by centrifugation. To 100 µl of the supernatant 10 µl of 1% formic acid was added followed by further incubation at 60°C for 10 min to complete the formation of the zinc chelate, if the compound contains a free DOTA moiety.
The determination of the analyte in the clean sample solutions was performed on an Agilent 1290 UHPLC system coupled to an Agilent 6530 Q-TOF mass spectrometer. The chromatographic separation was carried out on a Phenomenex BioZen XB-C18 HPLC column (50 x 2 mm, 1.7 µm particle size).
Two different elution gradients were applied using a mixture of 0.1% formic acid in water as eluent A and acetonitrile as eluent B: • A) 2% B to 41% in 7 min, 800 µl/min, 40°C. • B) 5% B to 50% B in 6 min, 800 µL/min, 40°C.
Mass spectrometric detection was performed in positive ion ESI mode by scanning the mass range from m/z 50 to 3000 with a sampling rate of 2 / sec.
From the mass spectrometric raw data the ion currents for the double or triple charged monoisotopic signal was extracted for both, the compound and the internal standard.
Quantitation was performed by external matrix calibration with internal standard using the integrated analyte signals.
Additionally, recovery was determined by spiking a pure plasma sample that only contained the internal standard after treatment with a certain amount of the compound.
Carry-over was evaluated by analysis of a blank sample (20% acetonitrile) after the highest calibration sample.
The result is stated as "% intact compound remaining after 6 h incubation" and means that from the amount of material at the start of the experiment the stated percentage is detected as unchanged material at the end of the experiment by LC-MS quantification. Since all compounds are more than 50% intact after 6 h they are considered as stable enough for diagnostic and therapeutic applications. Table 13: Results of the plasma stability assay

human uPAR (uPAR-Fc) = target: T1, human uPAR (uPAR-Fc) (Homo sapiens, UniProt Q03405); test: Surface plasmon resonance (SPR) assay, single cycle kinetics; format: binding; details: pKD category for uPAR SPR activity assay, uPAR-Fc on Protein A-Chip, 25°C; for Kd: read-out: pKD CAT (converted)
T1 construct: comprising amino acids Leu23-Arg303 according to UniProt entry Q03405.1; purchased R&D Systems 10378-UK-100
T1 sequence (Q03405 23-303): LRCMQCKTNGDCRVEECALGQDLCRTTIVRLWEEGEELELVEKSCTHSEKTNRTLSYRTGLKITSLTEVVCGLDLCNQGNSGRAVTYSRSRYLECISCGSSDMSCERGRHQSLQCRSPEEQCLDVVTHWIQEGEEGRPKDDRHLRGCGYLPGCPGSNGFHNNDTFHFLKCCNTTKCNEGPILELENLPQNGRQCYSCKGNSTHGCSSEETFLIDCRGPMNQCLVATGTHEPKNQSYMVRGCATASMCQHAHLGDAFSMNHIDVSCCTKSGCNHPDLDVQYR
Summary of the method: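 uPAR-Fc (Leu23-Arg303 extracellular domains, human IgG1 Fc) captured on Protein A chip to ~2000 RU; single-cycle kinetics at 25°C in HEPES running buffer pH 7.4 with 0.1% DMSO. KD from double-referenced sensorgrams fitted to 1:1 Langmuir model, reported as pKD.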

[2] = target: T2, uPAR-expressing HEC-265 human endometrial adenocarcinoma cells (Homo sapiens, UniProt Q03405); test: Competitive FACS binding assay; details: pIC50 category of FACS binding
T2 construct: Cell surface uPAR-expressing HEC-265 human endometrial adenocarcinoma cells; host or cells: HEC-265
T2 sequence (Q03405 23-335): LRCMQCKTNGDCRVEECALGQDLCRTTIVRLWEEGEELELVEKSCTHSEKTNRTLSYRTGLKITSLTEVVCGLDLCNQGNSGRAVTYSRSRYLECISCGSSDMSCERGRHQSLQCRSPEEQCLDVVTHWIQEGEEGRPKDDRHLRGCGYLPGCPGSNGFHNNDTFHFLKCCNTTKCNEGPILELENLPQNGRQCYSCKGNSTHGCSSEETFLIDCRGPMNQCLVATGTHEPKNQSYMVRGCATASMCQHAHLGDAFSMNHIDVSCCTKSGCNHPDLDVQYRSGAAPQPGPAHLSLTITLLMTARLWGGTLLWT
Summary of the method: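 Competitive displacement of a 10 nM biotinylated peptide from HEC-265 cells (1 h, 4 °C, PBS/1% BSA), detected via APC-streptavidin by flow cytometry. pIC50 from four-parameter logistic fit of median fluorescence versus concentration.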

Compound | remaining at 6 h, 9.8 µM [1] [%] | Kd (human uPAR (uPAR-Fc)) [nM] | IC50 [2] [nM] | pIC50 CAT [2] | also measured
CCCCC(=O)N[C@H]1CSSC[C@@H](C(N)=O)NC(=O)[C@H](CCC)NC(=O)[C@H]([C@@H](C)CC)NC(=O)[C@@H]2C[C@@H](O)CN2C(=O)[C@@H]2CCCN2C(=O)[C@H](Cc2ccccc2)NC(=O)[C@H](Cc2ccc(O)cc2)NC(=O)[C@H](CCCCNC(=O)CCOCCOCCOCCOCCOCCOCCOCCOCCOCCOCCOCCOCCNC(=O)CN2CCN(CC(=O)O)CCN(CC(=O)O)CCN(CC(=O)O)CC2)NC(=O)[C@H](CCCNC(N)=O)NC1=O [UPAR-200, Pent-[Cys-Cit-Lys(DOTA-PEG12)-Tyr-Phe-Pro-Hyp-Ile-Nva-Cys]-NHz] (Pentanoyl-C[Cit]K([PEG12-DOTA])YFP[Hyp]I[Nva]C-NH2; disulfide 1-10) | > 95 | < 1.58 | ≤ 10 |  | 
CCCCOC(=O)N[C@H]1CSSC[C@@H](C(N)=O)NC(=O)[C@H](CCC)NC(=O)[C@H]([C@@H](C)CC)NC(=O)[C@@H]2C[C@@H](O)CN2C(=O)[C@@H]2CCCN2C(=O)[C@H](Cc2ccccc2)NC(=O)[C@H](Cc2ccc(O)cc2)NC(=O)[C@H](CCCCNC(=O)CN2CCN(CC(=O)O)CCN(CC(=O)O)CCN(CC(=O)O)CC2)NC(=O)[C@H](CCCNC(N)=O)NC1=O [UPAR-275, Butoc-[Cys-Cit-Lys(DOTA)-Tyr-Phe-Pro-Hyp-Ile-Nva-Cys]-NH2] (Butoxycarbonyl-C[Cit]K(DOTA)YFP[Hyp]I[Nva]C-NH2; disulfide 1-10) | 70 | < 1.58 | ≤ 10 |  | 
Pent-[Cys-Har-Lys(GdDOTA)-Tyr-Phe-Pro-Hyp-Ile-Nva-Cys]-NH2 (Pentanoyl-C[hArg]K(GdDOTA)YFP[Hyp]I[Nva]C-NH2; disulfide 1-10; not fully specified; also: Gd(III) complexed by DOTA) [UPAR-376] |  |  |  | A (pIC50 values ≥8.0) | pKD CAT (human uPAR (uPAR-Fc); single cycle kinetics): A (pKD values ≥ 8.8)
Pent-[Cys-KMe3-Lys(LaDOTA)-Tyr-Phe-Pro-Hyp-Ile-Nva-Cys]-NH2 (Pentanoyl-C[Lys(Me3)]K(LaDOTA)YFP[Hyp]I[Nva]C-NH2; disulfide 1-10; not fully specified; also: La(III) complexed by DOTA) [UPAR-183] |  |  |  | A (pIC50 values ≥8.0) | pKD CAT (human uPAR (uPAR-Fc)): A (pKD values ≥ 8.8)
Pent-[Cys-Orn(mPEG12)-Lys(InDOTA)-Tyr-Phe-Pro-Hyp-Ile-Nva-Cys]-NH2 (Pentanoyl-C[Orn](CH3O(CH2CH2O)11CH2CH2CO)K(DOTA(In))YFP[Hyp]I[Nva]C-NH2; disulfide 1-10; not fully specified; also: In(III) complexed by DOTA) [UPAR-311] |  |  |  | A (pIC50 values ≥8.0) | pKD CAT (human uPAR (uPAR-Fc)): A (pKD values ≥ 8.8)
Succinyl-Nva-[Cys-Cit-Lys(GdDOTA)-Tyr-Phe-Pro-Hyp-Ile-Nva-Cys]-NH2 [UPAR-460] |  |  |  | A (pIC50 values ≥8.0) | pKD CAT (human uPAR (uPAR-Fc); single cycle kinetics): A (pKD values ≥ 8.8)
iHex-[Cys-Arg-Gln-Tyr-Phe-Pro-Apc(GdDOTA)-Ile-Leu-Cys]-NH2 ({Pentanoyl(4-Me)}-CRQYFP[Api](GdDOTA)ILC-NH2; disulfide 1-10 (inferred); not fully specified) [UPAR-457] |  |  |  | A (pIC50 values ≥8.0) | % intact compound remaining after 6h incubation Mouse plasma [1]: 64%
iHex-[Cys-Lys(LuDOTA)-Gln-Tyr-Phe-Pro-ala-Ile-Leu-Cys]-NH2 ({Pentanoyl(4-Me)}-CK(DOTA(Lu))QYFP[dA]ILC-NH2; disulfide 1-10 (inferred); not fully specified) [UPAR-408] |  |  |  | A (pIC50 values ≥8.0) | % intact compound remaining after 6h incubation Mouse plasma [1]: 75%

The next lines start with results.

remaining at 6 h, 9.8 µM [1] [%] | Kd (human uPAR (uPAR-Fc)) [nM] | IC50 [2] [nM] | pIC50 CAT [2] | Compound | also measured
57 | < 1.58 | ≤ 10 |  | CC[C@H](C)[C@@H]1NC(=O)[C@@H](C)NC(=O)[C@@H]2CCCN2C(=O)[C@H](Cc2ccccc2)NC(=O)[C@H](Cc2ccc(O)cc2)NC(=O)[C@H](CCCCNC(=O)CN2CCN(CC(=O)O)CCN(CC(=O)O)CCN(CC(=O)O)CC2)NC(=O)[C@H](CCCNC(=N)N)NC(=O)[C@@H](NC(=O)CCC(C)C)CSSC[C@@H](C(N)=O)NC(=O)[C@H](CC(C)C)NC1=O [UPAR-176, iHex-[Cys-Arg-Lys(DOTA)-Tyr-Phe-Pro-ala-Ile-Leu-Cys]-NH2] ({Pentanoyl(4-Me)}-CRK(DOTA)YFP[dA]ILC-NH2; disulfide 1-10) | 
84 | > 100 | ≥ 126 |  | CC[C@H](C)[C@@H]1NC(=O)[C@@H](C)NC(=O)[C@@H]2CCCN2C(=O)[C@H](Cc2ccccc2)NC(=O)[C@H](Cc2ccc(O)cc2)NC(=O)[C@H](CCC(N)=O)NC(=O)[C@@H](C)NC(=O)[C@@H](NC(=O)[C@H](CC(C)C)NC(=O)COCCOCCNC(=O)CN2CCN(CC(=O)O)CCN(CC(=O)O)CCN(CC(=O)O)CC2)CSSC[C@@H](C(N)=O)NC(=O)[C@H](CC(C)C)NC1=O [UPAR-216, DOTA-O2Oc-Leu-[Cys-ala-Gln-Tyr-Phe-Pro-ala-Ile-Leu-Cys]-NH2] ({DOTA-AEEA}-LC[dA]QYFP[dA]ILC-NH2; disulfide 2-11) | 
87 | < 1.58 | ≤ 10 |  | CCCCC(=O)N[C@H]1CSSC[C@@H](C(N)=O)NC(=O)[C@H](CCC)NC(=O)[C@H]([C@@H](C)CC)NC(=O)[C@@H]2C[C@@H](O)CN2C(=O)[C@@H]2CCCN2C(=O)[C@H](Cc2ccccc2)NC(=O)[C@H](Cc2ccc(O)cc2)NC(=O)[C@H](CCCCNC(=O)CN2CCN(CC(=O)O)CCN(CC(=O)O)CCN(CC(=O)O)CC2)NC(=O)[C@H](CCCCNC(=N)N)NC1=O [UPAR-278, Pent-[Cys-Har-Lys(DOTA)-Tyr-Phe-Pro-Hyp-Ile-Nva-Cys]-NH2] (Pentanoyl-C[hArg]K(DOTA)YFP[Hyp]I[Nva]C-NH2; disulfide 1-10) | 
 |  |  | A (pIC50 values ≥8.0) | Pent-[Cys-Cit-Lys(LuDOTA)-Nif-Phe-Pro-Hyp-Ile-Nva-Cys]-NH2 [UPAR-352] | pKD CAT (human uPAR (uPAR-Fc); single cycle kinetics): A (pKD values ≥ 8.8)
 |  |  | A (pIC50 values ≥8.0) | Pent-[Cys-Cit-Lys(LuDOTA)-Tyr-Egm-Pro-Hyp-Ile-Nva-Cys]-NH2 [UPAR-254] | pKD CAT (human uPAR (uPAR-Fc)): A (pKD values ≥ 8.8)
 |  |  | A (pIC50 values ≥8.0) | Pent-[Cys-Cit-Lys(LuDOTA)-Tyr-Phe-Pro-nma-Ile-Nva-Cys]-NH2 (Pentanoyl-C[Cit]K(DOTA(Lu))YFP[dNMeA]I[Nva]C-NH2; disulfide 1-10; not fully specified; also: Lu(III) complexed by DOTA) [UPAR-151] | pKD CAT (human uPAR (uPAR-Fc)): A (pKD values ≥ 8.8)
 |  |  | A (pIC50 values ≥8.0) | nBuCAyl-[Cys-Cit-Lys(LuDOTA)-Tyr-Phe-Pro-Hyp-Ile-Nva-Cys]-NH2 (nBuCAyl-C[Cit]K(DOTA(Lu))YFP[Hyp]I[Nva]C-NH2; disulfide 1-10; also: Lu(III) chelated by DOTA on Lys3) [UPAR-464] | pKD CAT (human uPAR (uPAR-Fc); single cycle kinetics): A (pKD values ≥ 8.8)

Reference: patent EP4610269A1, “UROKINASE PLASMINOGEN ACTIVATOR SURFACE RECEPTOR (UPAR) LIGANDS FOR DIAGNOSTIC OR THERAPEUTIC USE” (3B Pharmaceuticals GmbH, priority 2024, dated 2025)
